*1 amine or outer side, *2 acyl side, *3 side chain or, on linkers, in order; H or OH if unused. Where a SMILES comes first, the peptide text is derived from it. Side-chain parts run from the residue outwards. [ ]: non-standard residue; d: D form. The star is where a group is joined. C20 diacid = O=C(O)CCCCCCCCCCCCCCCCCCC(=O)*; γGlu = O=C(O)[C@H](CCC(=O)[*:2])N[*:1]; NMeI = CC[C@H](C)[C@H](NC)C(=O)O; Decanoyl = CCCCCCCCCC(=O)*; Pentanoyl = CCCCC(=O)*; AEEA = NCCOCCOCC(=O)O; Aib = CC(C)(N)C(=O)O
What follows are compounds tested on human LAD2 cells.
Type: cell-based
Summary of the method: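 Mast cell degranulation: cells exposed to peptides for 30 min at final concentrations from 50, 100 or 300 down to 0.1 or 0.001 μM, with 0.5% DMSO where used, in biological duplicates. β-hexosaminidase release was read with a fluorogenic 4-methylumbelliferyl substrate as supernatant/(supernatant + Triton-lysed pellet) × 100. EC50 came from a 4-parameter sigmoidal fit.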

Row | EC50 [µM] | SMILES
1 | 47.5 | CC[C@H](C)[C@H](NC(C)=O)C(=O)N[C@H](C(=O)N[C@@H](CC(C)C)C(=O)N[C@@H](CO)C(=O)N[C@@H](CC(C)C)C(=O)N[C@@H](CC(=O)O)C(=O)N[C@@H](C(=O)N1CCC[C@H]1C(=O)N[C@H](C(=O)N[C@@H](CCCCN)C(=O)N[C@@H](CC(C)C)C(=O)N[C@@H](CCCCNC(=O)COCCOCCNC(=O)CC[C@H](NC(=O)CCCCCCCCCCCCCCCCCCC(=O)O)C(=O)O)C(=O)N[C@@H](CCCCN)C(=O)N[C@H](C(=O)N[C@@H](CC(C)C)C(=O)N[C@@H](CC(C)C)C(=O)N[C@@H](CCC(=O)O)C(=O)N[C@@H](CCC(N)=O)C(=O)N[C@@H](CCC(=O)O)C(=O)N[C@@H](CCCCN)C(=O)N[C@@H](CCC(N)=O)C(=O)N[C@@H](CCCCN)C(=O)N[C@@H](CCC(=O)O)C(=O)N[C@@H](CCC(N)=O)C(=O)N[C@@H](CCCNC(=N)N)C(=O)N[C@@H](CCC(=O)O)C(=O)N[C@@H](CCC(N)=O)C(=O)N[C@@H](C)C(=O)N[C@@H](CCC(=O)O)C(=O)N[C@H](C(=O)N[C@@H](CC(N)=O)C(=O)NC(C)(C)C(=O)N[C@@H](CCC(N)=O)C(=O)N[C@H](C(=O)N[C@@H](CC(C)C)C(=O)N[C@@H](C)C(=O)N[C@@H](CCC(N)=O)C(=O)N[C@H](C(N)=O)C(C)C)[C@@H](C)CC)[C@@H](C)O)[C@@H](C)CC)[C@@H](C)CC)C(C)C)C(C)C [Cmpd 231] (Ac-IVLSLD[dV]PIKLK([AEEA-γGlu-C20 diacid])KILLEQEKQKEQREQAETN[Aib]QILAQV-NH2)
2 | > 300 | CC[C@H](C)[C@H](NC)C(=O)N[C@H](C(=O)N[C@@H](CC(C)C)C(=O)N[C@@H](CO)C(=O)N[C@@H](CC(C)C)C(=O)N[C@@H](CC(=O)O)C(=O)N[C@@H](C(=O)N1CCC[C@H]1C(=O)N[C@H](C(=O)N[C@@H](CCCCN)C(=O)N[C@@H](CC(C)C)C(=O)N[C@@H](CCCCNC(=O)COCCOCCNC(=O)CC[C@H](NC(=O)CCCCCCCCCCCCCCCCCCC(=O)O)C(=O)O)C(=O)N[C@@H](CCCCN)C(=O)N[C@H](C(=O)N[C@@H](CC(C)C)C(=O)N[C@@H](CC(C)C)C(=O)N[C@@H](CCC(=O)O)C(=O)N[C@@H](CCC(N)=O)C(=O)N[C@@H](CCC(=O)O)C(=O)N[C@@H](CCCCN)C(=O)N[C@@H](CCC(N)=O)C(=O)N[C@@H](CCCCN)C(=O)N[C@@H](CCC(=O)O)C(=O)N[C@@H](CCC(N)=O)C(=O)N[C@@H](CCCNC(=N)N)C(=O)N[C@@H](CCC(=O)O)C(=O)N[C@@H](CCC(N)=O)C(=O)N[C@@H](C)C(=O)N[C@@H](CCC(=O)O)C(=O)N[C@H](C(=O)N[C@@H](CC(N)=O)C(=O)NC(C)(C)C(=O)N[C@@H](CCC(N)=O)C(=O)N[C@H](C(=O)N[C@@H](CC(C)C)C(=O)N[C@@H](C)C(=O)N[C@@H](CCC(N)=O)C(=O)N[C@H](C(N)=O)C(C)C)[C@@H](C)CC)[C@@H](C)O)[C@@H](C)CC)[C@@H](C)CC)C(C)C)C(C)C [Cmpd 233] (H-[NMeI]VLSLD[dV]PIKLK([AEEA-γGlu-C20 diacid])KILLEQEKQKEQREQAETN[Aib]QILAQV-NH2)
3 | 49.2 | CC[C@H](C)[C@H](NC)C(=O)N[C@H](C(=O)N[C@@H](CC(C)C)C(=O)N[C@@H](CO)C(=O)N[C@@H](CC(C)C)C(=O)N[C@@H](CC(=O)O)C(=O)N[C@@H](C(=O)N1CCC[C@H]1C(=O)N[C@H](C(=O)N[C@@H](CCCCN)C(=O)N[C@@H](CC(C)C)C(=O)N[C@@H](CCCCNC(=O)COCCOCCNC(=O)CC[C@H](NC(=O)CCCCCCCCCCCCCCCCCCC(=O)O)C(=O)O)C(=O)N[C@@H](CCCCN)C(=O)N[C@H](C(=O)N[C@@H](CC(C)C)C(=O)N[C@@H](CC(C)C)C(=O)N[C@@H](CCC(=O)O)C(=O)N[C@@H](CCC(N)=O)C(=O)N[C@@H](CCC(=O)O)C(=O)N[C@@H](CCCCN)C(=O)N[C@@H](CCC(N)=O)C(=O)N[C@@H](CCCCN)C(=O)NC(C)(C)C(=O)N[C@@H](CCC(N)=O)C(=O)N[C@@H](CCCNC(=N)N)C(=O)N[C@@H](CCC(=O)O)C(=O)N[C@@H](CCC(N)=O)C(=O)N[C@@H](C)C(=O)N[C@@H](CCC(=O)O)C(=O)N[C@H](C(=O)N[C@@H](CC(N)=O)C(=O)NC(C)(C)C(=O)N[C@@H](CCC(N)=O)C(=O)N[C@H](C(=O)N[C@@H](CC(C)C)C(=O)N[C@@H](C)C(=O)N[C@@H](CCC(N)=O)C(=O)N[C@H](C(N)=O)C(C)C)[C@@H](C)CC)[C@@H](C)O)[C@@H](C)CC)[C@@H](C)CC)C(C)C)C(C)C [Cmpd 234] (H-[NMeI]VLSLD[dV]PIKLK([AEEA-γGlu-C20 diacid])KILLEQEKQK[Aib]QREQAETN[Aib]QILAQV-NH2)
4 | 74.1 | CC[C@H](C)[C@H](NC(C)=O)C(=O)N[C@H](C(=O)N[C@@H](CC(C)C)C(=O)N[C@@H](CO)C(=O)N[C@@H](CC(C)C)C(=O)N[C@@H](CC(=O)O)C(=O)N[C@@H](C(=O)N1CCC[C@H]1C(=O)N[C@H](C(=O)N[C@@H](CCCCN)C(=O)N[C@@H](CC(C)C)C(=O)N[C@@H](CCCCNC(=O)COCCOCCNC(=O)COCCOCCNC(=O)CC[C@H](NC(=O)CCCCCCCCCCCCCCCCCCC(=O)O)C(=O)O)C(=O)N[C@@H](CCCCN)C(=O)N[C@H](C(=O)N[C@@H](CC(C)C)C(=O)N[C@@H](CC(C)C)C(=O)N[C@@H](CCC(=O)O)C(=O)N[C@@H](CCC(N)=O)C(=O)N[C@@H](CCC(=O)O)C(=O)N[C@@H](CCCCN)C(=O)N[C@@H](CCC(N)=O)C(=O)N[C@@H](CCCCN)C(=O)N[C@@H](CCC(=O)O)C(=O)N[C@@H](CCC(N)=O)C(=O)N[C@@H](CCCNC(=N)N)C(=O)N[C@@H](CCC(=O)O)C(=O)N[C@@H](CCC(N)=O)C(=O)N[C@@H](C)C(=O)N[C@@H](CCC(=O)O)C(=O)N[C@H](C(=O)N[C@@H](CC(N)=O)C(=O)NC(C)(C)C(=O)N[C@@H](CCC(N)=O)C(=O)N[C@H](C(=O)N[C@@H](CC(C)C)C(=O)N[C@@H](C)C(=O)N[C@@H](CCC(N)=O)C(=O)N[C@H](C(N)=O)C(C)C)[C@@H](C)CC)[C@@H](C)O)[C@@H](C)CC)[C@@H](C)CC)C(C)C)C(C)C [Cmpd 236] (Ac-IVLSLD[dV]PIKLK([AEEA-AEEA-γGlu-C20 diacid])KILLEQEKQKEQREQAETN[Aib]QILAQV-NH2)

Second part, the compound before the results:

Row | SMILES | EC50 [µM]
5 | CC[C@H](C)[C@H](NC)C(=O)N[C@H](C(=O)N[C@@H](CC(C)C)C(=O)N[C@@H](CO)C(=O)N[C@@H](CC(C)C)C(=O)N[C@@H](CC(=O)O)C(=O)N[C@@H](C(=O)N1CCC[C@H]1C(=O)N[C@H](C(=O)N[C@@H](CCCCN)C(=O)N[C@@H](CC(C)C)C(=O)N[C@@H](CCCCNC(=O)CC[C@H](NC(=O)CCCCCCCCCCCCCCCCCCC(=O)O)C(=O)O)C(=O)N[C@@H](CCCCN)C(=O)N[C@H](C(=O)N[C@@H](CC(C)C)C(=O)N[C@@H](CC(C)C)C(=O)N[C@@H](CCC(=O)O)C(=O)N[C@@H](CCC(N)=O)C(=O)N[C@@H](CCC(=O)O)C(=O)N[C@@H](CCCCN)C(=O)N[C@@H](CCC(N)=O)C(=O)N[C@@H](CCCCN)C(=O)N[C@@H](CCC(=O)O)C(=O)N[C@@H](CCC(N)=O)C(=O)N[C@@H](CCCNC(=N)N)C(=O)N[C@@H](CCC(=O)O)C(=O)N[C@@H](CCC(N)=O)C(=O)N[C@@H](C)C(=O)N[C@@H](CCC(=O)O)C(=O)N[C@H](C(=O)N[C@@H](CC(N)=O)C(=O)NC(C)(C)C(=O)N[C@@H](CCC(N)=O)C(=O)N[C@H](C(=O)N[C@@H](CC(C)C)C(=O)N[C@@H](C)C(=O)N[C@@H](CCC(N)=O)C(=O)N[C@H](C(N)=O)C(C)C)[C@@H](C)CC)[C@@H](C)O)[C@@H](C)CC)[C@@H](C)CC)C(C)C)C(C)C [Cmpd 218] (H-[NMeI]VLSLD[dV]PIKLK([γGlu-C20 diacid])KILLEQEKQKEQREQAETN[Aib]QILAQV-NH2) | > 300
6 | CCCCC(=O)N[C@H](C(=O)N[C@@H](CC(C)C)C(=O)N[C@@H](CO)C(=O)N[C@@H](CC(C)C)C(=O)N[C@@H](CC(=O)O)C(=O)N[C@@H](C(=O)N1CCC[C@H]1C(=O)N[C@H](C(=O)N[C@@H](CCCCN)C(=O)N[C@@H](CC(C)C)C(=O)N[C@@H](CCCCNC(=O)CC[C@H](NC(=O)CCCCCCCCCCCCCCCCCCC(=O)O)C(=O)O)C(=O)N[C@@H](CCCCN)C(=O)N[C@H](C(=O)N[C@@H](CC(C)C)C(=O)N[C@@H](CC(C)C)C(=O)N[C@@H](CCC(=O)O)C(=O)N[C@@H](CCC(N)=O)C(=O)N[C@@H](CCC(=O)O)C(=O)N[C@@H](CCCCN)C(=O)N[C@@H](CCC(N)=O)C(=O)N[C@@H](CCCCN)C(=O)N[C@@H](CCCCN)C(=O)N[C@@H](CCC(N)=O)C(=O)N[C@@H](CCCNC(=N)N)C(=O)N[C@@H](CCC(=O)O)C(=O)N[C@@H](CCC(N)=O)C(=O)N[C@@H](C)C(=O)N[C@@H](CCC(=O)O)C(=O)N[C@H](C(=O)N[C@@H](CC(N)=O)C(=O)NC(C)(C)C(=O)N[C@@H](CCC(N)=O)C(=O)N[C@H](C(=O)N[C@@H](CC(C)C)C(=O)N[C@@H](C)C(=O)N[C@@H](CCC(N)=O)C(=O)N[C@H](C(N)=O)C(C)C)[C@@H](C)CC)[C@@H](C)O)[C@@H](C)CC)[C@@H](C)CC)C(C)C)C(C)C [Cmpd 219] (Pentanoyl-VLSLD[dV]PIKLK([γGlu-C20 diacid])KILLEQEKQKKQREQAETN[Aib]QILAQV-NH2) | 88.2
7 | CCCCCCCCCC(=O)N[C@H](C(=O)N[C@@H](CC(C)C)C(=O)N[C@@H](CO)C(=O)N[C@@H](CC(C)C)C(=O)N[C@@H](CC(=O)O)C(=O)N[C@@H](C(=O)N1CCC[C@H]1C(=O)N[C@H](C(=O)N[C@@H](CCCCN)C(=O)N[C@@H](CC(C)C)C(=O)N[C@@H](CCCCNC(=O)CC[C@H](NC(=O)CCCCCCCCCCCCCCCCCCC(=O)O)C(=O)O)C(=O)N[C@@H](CCCCN)C(=O)N[C@H](C(=O)N[C@@H](CC(C)C)C(=O)N[C@@H](CC(C)C)C(=O)N[C@@H](CCC(=O)O)C(=O)N[C@@H](CCC(N)=O)C(=O)N[C@@H](CCC(=O)O)C(=O)N[C@@H](CCCCN)C(=O)N[C@@H](CCC(N)=O)C(=O)N[C@@H](CCCCN)C(=O)N[C@@H](CCCCN)C(=O)N[C@@H](CCC(N)=O)C(=O)N[C@@H](CCCNC(=N)N)C(=O)N[C@@H](CCC(=O)O)C(=O)N[C@@H](CCC(N)=O)C(=O)N[C@@H](C)C(=O)N[C@@H](CCC(=O)O)C(=O)N[C@H](C(=O)N[C@@H](CC(N)=O)C(=O)NC(C)(C)C(=O)N[C@@H](CCC(N)=O)C(=O)N[C@H](C(=O)N[C@@H](CC(C)C)C(=O)N[C@@H](C)C(=O)N[C@@H](CCC(N)=O)C(=O)N[C@H](C(N)=O)C(C)C)[C@@H](C)CC)[C@@H](C)O)[C@@H](C)CC)[C@@H](C)CC)C(C)C)C(C)C [Cmpd 223] (Decanoyl-VLSLD[dV]PIKLK([γGlu-C20 diacid])KILLEQEKQKKQREQAETN[Aib]QILAQV-NH2) | > 300

Source: patent US20260001928A1 (CORTERIA PHARMACEUTICALS, priority 2022, published 2026)
